Legend:
Assay in all cases: KinaseProfiler Assay
Pim-1(h) = Pim-1(h) (Homo sapiens, UniProt P11309)
CK1γ1(h) = CK1γ1(h) (Homo sapiens, UniProt Q9HCP0)
EphA3(h) = target: T1, EphA3(h) (Homo sapiens, UniProt P29320)
T1 sequence (P29320 21-983): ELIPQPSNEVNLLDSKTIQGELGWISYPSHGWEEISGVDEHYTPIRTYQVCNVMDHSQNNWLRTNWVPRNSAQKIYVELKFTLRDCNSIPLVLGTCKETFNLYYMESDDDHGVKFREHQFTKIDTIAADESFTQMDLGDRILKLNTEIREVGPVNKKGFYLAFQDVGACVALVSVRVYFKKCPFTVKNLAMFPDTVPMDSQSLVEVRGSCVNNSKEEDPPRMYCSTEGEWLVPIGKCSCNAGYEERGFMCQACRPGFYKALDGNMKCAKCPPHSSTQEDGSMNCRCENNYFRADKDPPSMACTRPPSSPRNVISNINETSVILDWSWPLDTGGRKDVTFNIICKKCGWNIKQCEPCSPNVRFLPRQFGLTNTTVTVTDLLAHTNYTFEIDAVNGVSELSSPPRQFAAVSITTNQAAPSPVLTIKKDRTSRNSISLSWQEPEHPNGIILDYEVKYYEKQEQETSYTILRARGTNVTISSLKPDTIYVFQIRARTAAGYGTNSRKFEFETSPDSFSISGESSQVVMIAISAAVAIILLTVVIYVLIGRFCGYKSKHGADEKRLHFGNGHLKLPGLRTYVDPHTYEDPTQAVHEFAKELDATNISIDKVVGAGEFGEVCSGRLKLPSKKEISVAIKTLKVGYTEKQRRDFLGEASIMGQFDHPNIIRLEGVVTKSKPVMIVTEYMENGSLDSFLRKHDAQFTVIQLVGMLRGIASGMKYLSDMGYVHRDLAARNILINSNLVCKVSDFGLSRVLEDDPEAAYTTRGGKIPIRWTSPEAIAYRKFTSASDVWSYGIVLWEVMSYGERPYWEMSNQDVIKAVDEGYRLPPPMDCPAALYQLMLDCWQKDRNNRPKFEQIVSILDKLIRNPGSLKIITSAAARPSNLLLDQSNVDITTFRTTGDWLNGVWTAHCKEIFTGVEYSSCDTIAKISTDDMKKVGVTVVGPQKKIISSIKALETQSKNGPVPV

ULK2(h) = target: T2, ULK2(h) (Homo sapiens, UniProt Q8IYT8)
T2 sequence (Q8IYT8 1-1036): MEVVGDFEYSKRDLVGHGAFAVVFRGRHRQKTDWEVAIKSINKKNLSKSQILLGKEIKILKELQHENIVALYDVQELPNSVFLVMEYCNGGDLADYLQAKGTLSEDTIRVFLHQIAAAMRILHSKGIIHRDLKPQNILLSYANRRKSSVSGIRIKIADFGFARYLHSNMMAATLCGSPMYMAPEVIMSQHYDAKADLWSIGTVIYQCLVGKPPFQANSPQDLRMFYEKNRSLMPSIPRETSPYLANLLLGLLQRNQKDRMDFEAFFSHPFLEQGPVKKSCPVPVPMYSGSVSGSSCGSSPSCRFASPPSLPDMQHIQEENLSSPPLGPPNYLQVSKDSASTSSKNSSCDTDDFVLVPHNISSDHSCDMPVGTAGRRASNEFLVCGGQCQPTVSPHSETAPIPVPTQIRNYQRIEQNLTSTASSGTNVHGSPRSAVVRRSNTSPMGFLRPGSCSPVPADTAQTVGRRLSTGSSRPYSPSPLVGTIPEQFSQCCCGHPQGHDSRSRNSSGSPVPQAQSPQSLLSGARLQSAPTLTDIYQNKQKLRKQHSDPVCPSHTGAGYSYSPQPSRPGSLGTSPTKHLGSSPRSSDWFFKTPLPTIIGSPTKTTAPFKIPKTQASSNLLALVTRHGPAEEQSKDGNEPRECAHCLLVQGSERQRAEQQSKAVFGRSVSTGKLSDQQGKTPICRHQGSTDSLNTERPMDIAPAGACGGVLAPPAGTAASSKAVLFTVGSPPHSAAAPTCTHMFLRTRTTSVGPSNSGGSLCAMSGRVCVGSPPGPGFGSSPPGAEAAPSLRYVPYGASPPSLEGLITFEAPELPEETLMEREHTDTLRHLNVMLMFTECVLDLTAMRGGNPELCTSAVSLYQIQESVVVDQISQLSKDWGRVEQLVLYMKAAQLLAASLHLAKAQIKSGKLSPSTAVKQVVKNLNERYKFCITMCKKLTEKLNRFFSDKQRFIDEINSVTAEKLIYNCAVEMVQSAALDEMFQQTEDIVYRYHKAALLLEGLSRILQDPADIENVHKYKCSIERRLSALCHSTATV

Abl(T315I)(h) = Abl(T315I)(h) (Homo sapiens, UniProt P00519, T315I)
PrKX(h) = target: T3, PrKX(h) (Homo sapiens, UniProt P51817)
T3 sequence (P51817 1-358): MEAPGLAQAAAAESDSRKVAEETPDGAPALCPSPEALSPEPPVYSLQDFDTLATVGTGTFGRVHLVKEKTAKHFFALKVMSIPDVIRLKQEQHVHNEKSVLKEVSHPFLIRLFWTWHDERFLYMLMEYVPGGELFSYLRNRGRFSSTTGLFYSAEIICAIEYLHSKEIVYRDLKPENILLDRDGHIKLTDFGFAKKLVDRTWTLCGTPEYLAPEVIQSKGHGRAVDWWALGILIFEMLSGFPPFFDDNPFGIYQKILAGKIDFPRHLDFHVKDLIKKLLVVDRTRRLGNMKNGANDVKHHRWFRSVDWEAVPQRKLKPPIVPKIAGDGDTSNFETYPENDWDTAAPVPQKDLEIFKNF

Chain of CK1γ1(h) (Q9HCP0 whole entry): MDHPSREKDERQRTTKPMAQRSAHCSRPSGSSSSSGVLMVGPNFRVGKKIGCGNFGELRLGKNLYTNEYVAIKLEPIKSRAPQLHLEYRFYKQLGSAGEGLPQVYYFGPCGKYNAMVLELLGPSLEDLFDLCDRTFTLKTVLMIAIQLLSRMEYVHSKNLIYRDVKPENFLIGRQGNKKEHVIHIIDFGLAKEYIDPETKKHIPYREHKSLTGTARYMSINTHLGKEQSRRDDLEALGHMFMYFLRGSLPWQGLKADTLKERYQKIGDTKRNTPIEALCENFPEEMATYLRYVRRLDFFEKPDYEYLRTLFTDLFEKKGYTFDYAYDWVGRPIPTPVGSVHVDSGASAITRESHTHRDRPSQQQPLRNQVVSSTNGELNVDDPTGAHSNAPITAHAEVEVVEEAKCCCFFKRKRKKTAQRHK
Chain of Pim-1(h) (P11309 whole entry): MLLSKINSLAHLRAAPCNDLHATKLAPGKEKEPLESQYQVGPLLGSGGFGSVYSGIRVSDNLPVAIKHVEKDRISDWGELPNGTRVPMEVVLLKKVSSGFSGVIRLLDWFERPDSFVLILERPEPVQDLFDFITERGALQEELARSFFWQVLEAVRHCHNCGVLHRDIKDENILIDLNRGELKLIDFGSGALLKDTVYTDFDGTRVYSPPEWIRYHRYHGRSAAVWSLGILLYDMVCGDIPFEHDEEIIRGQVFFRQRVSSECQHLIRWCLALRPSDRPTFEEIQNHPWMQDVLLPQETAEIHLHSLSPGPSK

CC(C)CCC(=O)[C@]1(O)C(O)=C(C(=O)C(C)C)C(=O)[C@H]1CCC(C)C [TH2, tetrahydroiso-cohumulone]
kinase inhibition (Pim-1(h); 1 μg/ml): 86% of control | kinase inhibition (Pim-1(h); 5 μg/ml): 100% of control | kinase inhibition (Pim-1(h); 25 μg/ml): 87% of control | kinase inhibition (Pim-1(h); 50 μg/ml): 84% of control | kinase inhibition (Pim-1(h); 100 μg/ml): 55% of control | kinase inhibition (CK1γ1(h); 1 μg/ml): 100% of control | kinase inhibition (CK1γ1(h); 5 μg/ml): 101% of control | kinase inhibition (CK1γ1(h); 25 μg/ml): 88% of control | kinase inhibition (CK1γ1(h); 50 μg/ml): 73% of control | kinase inhibition (CK1γ1(h); 100 μg/ml): 48% of control | kinase inhibition (EphA3(h); 1 μg/ml): 93% of control | kinase inhibition (EphA3(h); 5 μg/ml): 91% of control | kinase inhibition (EphA3(h); 25 μg/ml): 98% of control | kinase inhibition (EphA3(h); 50 μg/ml): 87% of control | kinase inhibition (EphA3(h); 100 μg/ml): 84% of control | kinase inhibition (ULK2(h); 1 μg/ml): 102% of control | kinase inhibition (ULK2(h); 5 μg/ml): 52% of control | kinase inhibition (ULK2(h); 25 μg/ml): 77% of control | kinase inhibition (ULK2(h); 50 μg/ml): 106% of control | kinase inhibition (ULK2(h); 100 μg/ml): 105% of control | kinase inhibition (Abl(T315I)(h); 1 μg/ml): 102% of control | kinase inhibition (Abl(T315I)(h); 5 μg/ml): 98% of control | kinase inhibition (Abl(T315I)(h); 25 μg/ml): 79% of control | kinase inhibition (Abl(T315I)(h); 50 μg/ml): 68% of control | kinase inhibition (Abl(T315I)(h); 100 μg/ml): 58% of control | kinase inhibition (PrKX(h); 1 μg/ml): 101% of control | kinase inhibition (PrKX(h); 5 μg/ml): 103% of control | kinase inhibition (PrKX(h); 25 μg/ml): 98% of control | kinase inhibition (PrKX(h); 50 μg/ml): 88% of control | kinase inhibition (PrKX(h); 100 μg/ml): 66% of control

— US20100137449A1, “SUBSTITUTED 1,3-CYCLOPENTADIONE MULTI-TARGET PROTEIN KINASE MODULATORS OF CANCER, ANGIOGENESIS AND THE INFLAMMATORY PATHWAYS ASSOCIATED THEREWITH” (METAPROTEOMICS, LLC, priority 2007, published 2010)
